Here are results for 20 molecules from ChEMBL document CHEMBL4818994, “Uncompetitive nanomolar dimeric indenoindole inhibitors of the human breast cancer resistance pump ABCG2” (Eur J Med Chem, 2021).

For orientation: IC50 means the midpoint of a concentration-inhibition curve. In general, Ki refers to a dissociation constant, usually derived from enzyme kinetics or from competition with a known ligand.

Series [1] deals with T1, Broad substrate specificity ATP-binding cassette transporter ABCG2 (Homo sapiens, UniProt Q9UNQ0).
T1 sequence (Q9UNQ0 whole entry): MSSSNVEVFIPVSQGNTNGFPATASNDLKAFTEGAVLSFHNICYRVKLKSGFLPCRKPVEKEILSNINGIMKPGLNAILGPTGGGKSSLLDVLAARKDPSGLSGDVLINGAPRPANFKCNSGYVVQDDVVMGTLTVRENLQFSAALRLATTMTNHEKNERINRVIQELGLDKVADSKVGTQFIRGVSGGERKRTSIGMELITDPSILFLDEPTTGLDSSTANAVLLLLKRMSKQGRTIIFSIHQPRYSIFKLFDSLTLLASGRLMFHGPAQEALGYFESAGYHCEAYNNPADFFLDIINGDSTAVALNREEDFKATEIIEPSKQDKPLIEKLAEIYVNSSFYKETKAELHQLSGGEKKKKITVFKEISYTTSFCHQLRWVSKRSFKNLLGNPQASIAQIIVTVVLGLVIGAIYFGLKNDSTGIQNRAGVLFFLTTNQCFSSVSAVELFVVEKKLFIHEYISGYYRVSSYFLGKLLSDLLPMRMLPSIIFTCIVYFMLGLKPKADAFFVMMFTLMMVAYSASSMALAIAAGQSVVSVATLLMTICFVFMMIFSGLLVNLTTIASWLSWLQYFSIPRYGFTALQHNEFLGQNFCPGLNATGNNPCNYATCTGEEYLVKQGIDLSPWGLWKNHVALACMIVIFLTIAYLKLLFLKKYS
Description: Inhibition of human ABCG2 transfected in human HEK293 cells assessed as inhibition of mitoxantrone efflux measured after 30 mins by FACS Calibur cytometric analysis. Type of series: cell-based. (In general: A flow cytometer gives signals particle by particle.)

In series [2] the target is T1, Broad substrate specificity ATP-binding cassette transporter ABCG2. Kind of series: Mixed inhibition of human ABCG2 transfected in human HEK293 cells assessed as Ki1 for inhibition of mitoxantrone efflux measured after 30 mins by FACS Calibur cytometric analysis. Type of series: cell-based.
The target is the same in series [3]. Kind of series: Mixed inhibition of human ABCG2 transfected in human HEK293 cells assessed as Ki2 for inhibition of mitoxantrone efflux measured after 30 mins by FACS Calibur cytometric analysis. Type of series: cell-based.
Series [4] shares this target. Kind of series: Mixed inhibition of human ABCG2 transfected in human HEK293 cells assessed as Ki2 for inhibition of Hoechst33342 efflux measured after 30 mins by FACS Calibur cytometric analysis. In kind it is cell-based.
Series [5] is described as follows: Growth inhibition of human HEK293 cells after 72 hrs by MTT assay. The note with it: read-out: IG50. Type of series: cell-based.
The nature of series [6]: Growth inhibition of human HEK293 cells overexpressing human ABCG2 after 72 hrs by MTT assay. In kind it is ADME, cell-based. The note with it: read-out: IG50.
In series [7] the target is Multidrug resistance-associated protein 1 (Homo sapiens, UniProt P33527). Kind of series: Inhibition of human MRP1 transfected in human HEK293 cells assessed as inhibition of Calcein-AM efflux measured after 30 mins by FACS Calibur cytometric analysis. Type of series: cell-based. The note with it: hek293, 0.5 h.
Sequence of Multidrug resistance-associated protein 1 (P33527 whole entry): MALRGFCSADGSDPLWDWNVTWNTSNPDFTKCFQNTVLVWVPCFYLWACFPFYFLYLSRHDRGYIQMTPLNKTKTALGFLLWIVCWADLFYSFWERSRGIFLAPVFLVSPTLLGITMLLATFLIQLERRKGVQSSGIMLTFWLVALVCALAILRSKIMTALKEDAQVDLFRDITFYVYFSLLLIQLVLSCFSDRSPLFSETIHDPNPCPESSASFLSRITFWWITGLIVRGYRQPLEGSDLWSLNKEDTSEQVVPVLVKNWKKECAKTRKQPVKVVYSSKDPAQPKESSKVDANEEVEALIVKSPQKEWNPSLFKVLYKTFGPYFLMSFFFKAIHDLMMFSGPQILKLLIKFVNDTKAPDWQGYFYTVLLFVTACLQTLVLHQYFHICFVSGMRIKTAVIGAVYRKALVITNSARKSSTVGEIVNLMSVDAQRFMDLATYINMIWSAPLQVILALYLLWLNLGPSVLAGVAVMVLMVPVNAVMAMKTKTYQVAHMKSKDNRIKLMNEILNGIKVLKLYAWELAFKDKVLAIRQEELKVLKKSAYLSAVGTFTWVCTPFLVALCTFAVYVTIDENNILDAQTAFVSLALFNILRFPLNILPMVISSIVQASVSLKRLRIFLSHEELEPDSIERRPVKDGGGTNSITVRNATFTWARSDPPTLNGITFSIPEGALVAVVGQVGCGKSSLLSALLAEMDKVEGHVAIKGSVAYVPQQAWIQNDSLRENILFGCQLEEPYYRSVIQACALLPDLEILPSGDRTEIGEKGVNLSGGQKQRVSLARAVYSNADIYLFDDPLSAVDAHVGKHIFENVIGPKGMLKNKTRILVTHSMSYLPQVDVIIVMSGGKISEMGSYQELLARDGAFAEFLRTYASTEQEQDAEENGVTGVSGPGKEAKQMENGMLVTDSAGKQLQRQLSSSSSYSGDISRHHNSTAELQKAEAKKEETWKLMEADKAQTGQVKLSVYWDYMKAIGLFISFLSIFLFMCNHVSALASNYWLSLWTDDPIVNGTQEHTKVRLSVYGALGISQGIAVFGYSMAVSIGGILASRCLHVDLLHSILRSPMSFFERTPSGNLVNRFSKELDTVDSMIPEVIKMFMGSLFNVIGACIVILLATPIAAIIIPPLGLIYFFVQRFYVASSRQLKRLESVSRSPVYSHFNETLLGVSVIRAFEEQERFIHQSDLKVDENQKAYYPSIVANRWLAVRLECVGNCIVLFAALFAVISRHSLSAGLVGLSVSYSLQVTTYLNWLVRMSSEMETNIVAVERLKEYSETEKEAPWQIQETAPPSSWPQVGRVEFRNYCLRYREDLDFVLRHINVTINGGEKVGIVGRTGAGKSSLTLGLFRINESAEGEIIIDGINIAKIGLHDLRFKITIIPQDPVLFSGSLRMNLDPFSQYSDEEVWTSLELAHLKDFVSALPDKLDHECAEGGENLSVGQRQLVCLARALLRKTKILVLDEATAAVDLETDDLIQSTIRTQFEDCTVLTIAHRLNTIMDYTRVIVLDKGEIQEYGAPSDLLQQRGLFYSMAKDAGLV
Series [8] concerns the target T2, ATP-dependent translocase ABCB1 (Homo sapiens, UniProt P08183). Kind of series: Inhibition of human P-gp1 transfected in mouse NIH3T3 cells assessed as inhibition of Calcein-AM efflux measured after 30 mins by FACS Calibur cytometric analysis. Type of series: cell-based. The note with it: nih3t3, 0.5 h.
The target in series [9] is T1, Broad substrate specificity ATP-binding cassette transporter ABCG2. Description: Uncompetitive inhibition of human ABCG2 transfected in human HEK293 cells assessed as Ki2 for inhibition of mitoxantrone efflux measured after 30 mins by FACS Calibur cytometric analysis. In kind it is cell-based.
For series [10], the system named is ABCG2. Kind of series: Therapeutic ratio of IG50 for growth inhibition of human HEK293 cells to IC50 for inhibition of human ABCG2 expressed in human HEK293 cells. In kind it is toxicity, cell-based.
For series [11], the system named is ABCG2. Description: Therapeutic ratio of IG50 for growth inhibition of human HEK293 cells overexpressing human ABCG2 to IC50 for inhibition of human ABCG2 expressed in human HEK293 cells. In kind it is toxicity, cell-based.
In series [12] the target is T1, Broad substrate specificity ATP-binding cassette transporter ABCG2. Kind of series: Mixed inhibition of human ABCG2 transfected in human HEK293 cells assessed as Ki1 for inhibition of Hoechst33342 efflux measured after 30 mins by FACS Calibur cytometric analysis. In kind it is cell-based.
The target of series [13] is T2, ATP-dependent translocase ABCB1. Description: Inhibition of human P-gp1 transfected in mouse NIH3T3 cells assessed as inhibition of Rhodamine123 efflux measured after 30 mins by FACS Calibur cytometric analysis. Type of series: cell-based. The note with it: nih3t3, 0.5 h.
Series [14] concerns the target T1, Broad substrate specificity ATP-binding cassette transporter ABCG2. Description: Non-competitive inhibition of human ABCG2 transfected in human HEK293 cells assessed as Ki2 for inhibition of mitoxantrone efflux measured after 30 mins by FACS Calibur cytometric analysis. Type of series: cell-based.

T2 sequence (P08183 whole entry): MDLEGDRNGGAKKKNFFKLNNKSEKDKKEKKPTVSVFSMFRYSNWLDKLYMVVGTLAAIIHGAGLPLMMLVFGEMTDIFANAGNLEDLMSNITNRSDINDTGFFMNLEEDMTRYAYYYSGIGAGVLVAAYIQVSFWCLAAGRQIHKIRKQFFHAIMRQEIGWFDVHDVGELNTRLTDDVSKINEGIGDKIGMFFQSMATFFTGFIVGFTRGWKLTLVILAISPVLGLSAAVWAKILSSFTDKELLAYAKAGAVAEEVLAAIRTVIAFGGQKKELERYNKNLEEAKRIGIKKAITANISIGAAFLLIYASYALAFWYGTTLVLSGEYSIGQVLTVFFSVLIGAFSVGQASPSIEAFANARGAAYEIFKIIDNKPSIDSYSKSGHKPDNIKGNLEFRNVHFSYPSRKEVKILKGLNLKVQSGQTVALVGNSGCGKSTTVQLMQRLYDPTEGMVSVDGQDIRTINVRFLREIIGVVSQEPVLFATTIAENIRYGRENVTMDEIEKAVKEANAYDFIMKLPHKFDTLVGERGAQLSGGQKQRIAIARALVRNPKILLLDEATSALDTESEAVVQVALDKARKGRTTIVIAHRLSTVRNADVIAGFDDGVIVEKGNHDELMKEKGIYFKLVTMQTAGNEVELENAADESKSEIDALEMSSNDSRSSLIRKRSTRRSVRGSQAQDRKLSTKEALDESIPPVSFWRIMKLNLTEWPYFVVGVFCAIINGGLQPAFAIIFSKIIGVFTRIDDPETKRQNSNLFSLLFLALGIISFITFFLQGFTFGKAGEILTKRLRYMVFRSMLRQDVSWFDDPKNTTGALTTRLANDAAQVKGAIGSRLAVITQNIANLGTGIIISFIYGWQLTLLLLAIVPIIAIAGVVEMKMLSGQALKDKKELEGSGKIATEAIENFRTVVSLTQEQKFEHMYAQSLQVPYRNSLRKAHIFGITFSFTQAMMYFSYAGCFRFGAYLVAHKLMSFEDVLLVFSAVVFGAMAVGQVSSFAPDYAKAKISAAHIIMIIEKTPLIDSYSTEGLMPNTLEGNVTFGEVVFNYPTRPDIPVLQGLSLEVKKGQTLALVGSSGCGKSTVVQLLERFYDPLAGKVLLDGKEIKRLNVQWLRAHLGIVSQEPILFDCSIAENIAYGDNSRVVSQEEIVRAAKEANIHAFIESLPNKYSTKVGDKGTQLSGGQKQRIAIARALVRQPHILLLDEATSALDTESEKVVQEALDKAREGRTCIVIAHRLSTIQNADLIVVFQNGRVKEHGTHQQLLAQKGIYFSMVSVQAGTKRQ

On to `CC1CC(=O)c2c3c(n(CCc4ccccc4)c2C1)-c1ccccc1C3=O` (stereo unspecified), for which, in series [1], the half-inhibitory concentration (IC50) turned out to be 768 nM. Further, the Ki in series [2] came out at 323 nM; in series [3], 843 nM.

`CC1CC(=O)c2c3c(n(CCc4ccccc4)c2C1)-c1cc(OCCCCCCCCOc2ccc4c(c2)-c2c(c5c(n2CCc2ccccc2)CC(C)CC5=O)C4=O)ccc1C3=O` (stereo unspecified): the IC50 in [1] is more than 10000 nM.

As to `CC1CC(=O)c2c3c(n(CCc4ccccc4)c2C1)-c1cc(OCCCCCCCCCCCCOc2ccc4c(c2)-c2c(c5c(n2CCc2ccccc2)CC(C)CC5=O)C4=O)ccc1C3=O` (stereo unspecified), the IC50 in [1] is more than 10000 nM.

Consider `COc1cccc(CCn2c3c(c4c(OCCCCOc5cccc6c5c5c(n6CCc6cccc(OC)c6)-c6ccccc6C5=O)cccc42)C(=O)c2ccccc2-3)c1`, for which the inhibitory constant (Ki) in series [4] was found to be 29 nM; in series [9] it was 17 nM; in series [12], 113 nM. For the same molecule, the GI50 at 72 h stood at 79600 nM in series [5] and 51800 nM in [6]. Besides, the IC50 in series [1] was determined as 24.1 nM. Also, the “inhibition (INH)” value in series [7] and in series [8] was “Not Active” throughout. Besides, the values for the selectivity ratio in [10] and in [11] were 3300 and 2160, respectively.

Take `CC1CC(=O)c2c3c(n(CCc4ccccc4)c2C1)-c1cc(OCCCCOc2ccc4c(c2)-c2c(c5c(n2CCc2ccccc2)CC(C)CC5=O)C4=O)ccc1C3=O` (stereo unspecified): the GI50 at 72 h in series [5] and in series [6] was 109000 nM throughout. For the same molecule, the IC50 in [1] is 867 nM. In addition, the “inhibition (INH)” value in series [7] and in [8] was “Not Active” each time. For the same molecule, the selectivity ratio in series [10] and in series [11] was 126 throughout.

Regarding `COc1cccc(CCn2c3c(c4c(OCCCCCCOc5cccc6c5c5c(n6CCc6cccc(OC)c6)-c6ccccc6C5=O)cccc42)C(=O)c2ccccc2-3)c1`, in [1], the concentration for half-maximal inhibition (IC50) was 27.4 nM. In addition, the “inhibition (INH)” value in [7] and in [8] was “Not Active” in each case. For the same molecule, the selectivity ratio in [10] and in [11] was not below 70000 each time.

In the case of `COc1cccc(CCn2c3c(c4c(OCCCCCCCCCCCCOc5cccc6c5c5c(n6CCc6cccc(OC)c6)-c6ccccc6C5=O)cccc42)C(=O)c2ccccc2-3)c1`, the 50% inhibitory concentration (IC50) in series [1] was more than 10000 nM.

As to `COc1cccc(CCn2c3c(c4c(OCCCCCCCCCCOc5ccc6c(c5)-c5c(c7c(n5CCc5ccccc5)CC(C)CC7=O)C6=O)cccc42)C(=O)c2ccccc2-3)c1` (stereo unspecified), the IC50 in series [1] is more than 10000 nM.

As for `COc1cccc(CCn2c3c(c4c(OCCOc5ccc6c(c5)-c5c(c7c(n5CCc5ccccc5)CC(C)CC7=O)C6=O)cccc42)C(=O)c2ccccc2-3)c1` (stereo unspecified), the GI50 at 72 h in [5] and in series [6] was 221000 nM each time. Moreover, the IC50 in [1] was 68 nM. Further, the “inhibition (INH)” value in series [13] is reported as “Active”. The selectivity ratio in series [10] and in series [11] was 3250 throughout.

For the molecule `COc1cccc(CCn2c3c(c4c(OCCCCCCCCOc5ccc6c(c5)-c5c(c7c(n5CCc5ccccc5)CC(C)CC7=O)C6=O)cccc42)C(=O)c2ccccc2-3)c1` (stereo unspecified), the GI50 at 72 h in series [5] and in [6] was more than 20000 nM each time. Besides, the half-inhibitory concentration (IC50) in [1] stood at 389 nM. Moreover, the “inhibition (INH)” value in series [7] and in [8] was “Not Active” throughout. In addition, the selectivity ratio in series [10] and in [11] was more than 52 each time.

As for `COc1cccc(CCn2c3c(c4c(OCCCCCCCCCCCCOc5ccc6c(c5)-c5c(c7c(n5CCc5ccccc5)CC(C)CC7=O)C6=O)cccc42)C(=O)c2ccccc2-3)c1` (stereo unspecified), the IC50 in [1] was more than 10000 nM.

Turning to `COc1cccc(CCn2c3c(c4c(OCCCCOc5ccc6c(c5)-c5c(c7c(n5CCc5ccccc5)CC(C)CC7=O)C6=O)cccc42)C(=O)c2ccccc2-3)c1` (stereo unspecified), the GI50 at 72 h in series [5] and in [6] was 295000 nM throughout. In addition, the IC50 in series [1] turned out to be 133 nM. Further, the “inhibition (INH)” value in series [7] and in series [8] was “Not Active” each time. For the same molecule, the selectivity ratio in series [10] and in series [11] was 2230 throughout.

For `CC1CC(=O)c2c3c(n(CCc4ccccc4)c2C1)-c1cc(OCCCCCCCCCCOc2ccc4c(c2)-c2c(c5c(n2CCc2ccccc2)CC(C)CC5=O)C4=O)ccc1C3=O` (stereo unspecified), the IC50 in [1] was more than 10000 nM.

With `CC1CC(=O)c2c3c(n(CCc4ccccc4)c2C1)-c1cc(OCCCCCCOc2ccc4c(c2)-c2c(c5c(n2CCc2ccccc2)CC(C)CC5=O)C4=O)ccc1C3=O` (stereo unspecified), the IC50 in series [1] is more than 10000 nM.

Consider `COc1cccc(CCn2c3c(c4c(OCCCCCCCCOc5cccc6c5c5c(n6CCc6cccc(OC)c6)-c6ccccc6C5=O)cccc42)C(=O)c2ccccc2-3)c1`, for which the IC50 in series [1] is more than 10000 nM.

As for `COc1cccc(CCn2c3c(c4c(OCCCCCCCCCCOc5cccc6c5c5c(n6CCc6cccc(OC)c6)-c6ccccc6C5=O)cccc42)C(=O)c2ccccc2-3)c1`, in series [1], the 50% inhibitory concentration (IC50) was more than 10000 nM.

On to `COc1cccc(CCn2c3c(c4c(OCCOc5cccc6c5c5c(n6CCc6cccc(OC)c6)-c6ccccc6C5=O)cccc42)C(=O)c2ccccc2-3)c1`, for which the GI50 at 72 h is 917000 nM in [5] and more than 100000 nM in [6]. Moreover, the IC50 in [1] amounted to 38.4 nM. Also, the “inhibition (INH)” value in [7] and in series [8] was “Not Active” in each case. The selectivity ratio in series [10] was not below 2630.

Take `COc1cccc(CCn2c3c(c4c(O)cccc42)C(=O)c2ccccc2-3)c1`: the concentration for half-maximal inhibition (IC50) in series [1] came out at 732 nM. The Ki in series [2] amounted to 188 nM; in series [14] it was 250 nM; in series [3], 294 nM.

As for `COc1cccc(CCn2c3c(c4c(OCCCCCCOc5ccc6c(c5)-c5c(c7c(n5CCc5ccccc5)CC(C)CC7=O)C6=O)cccc42)C(=O)c2ccccc2-3)c1` (stereo unspecified), the GI50 at 72 h in [5] and in series [6] was more than 100000 nM each time. Further, the IC50 in series [1] came to 32.6 nM. Moreover, the Ki in series [2] was determined as 192 nM; in series [9], 38 nM; in series [3], 42 nM. Further, the “inhibition (INH)” value in [7] and in series [8] was “Not Active” in each case. Also, the selectivity ratio in [10] and in series [11] was more than 3070 each time.

Turning to `CC1CC(=O)c2c3c(n(CCc4ccccc4)c2C1)-c1cc(OCCOc2ccc4c(c2)-c2c(c5c(n2CCc2ccccc2)CC(C)CC5=O)C4=O)ccc1C3=O` (stereo unspecified), the GI50 at 72 h in series [5] and in [6] was 242000 nM in each case. For the same molecule, the IC50 in [1] was determined as 319 nM. Also, the “inhibition (INH)” value in series [7] and in [8] was “Not Active” in each case. For the same molecule, the selectivity ratio in series [10] and in series [11] was 758 each time.
